These results are taken from patent US11780901B2, “Analogues of parathyroid hormone (1-34) that function as agonists of the parathyroid hormone receptor-1 and display modified activity profiles” (Wisconsin Alumni Research Foundation, priority 2013, dated 2023).

SMILES strings stand for the structures. Read-outs that look alike come from different tables or passages of the source. Starred links: 1 amine or outer side, 2 acyl side, 3 side chain; linkers in the order of their positions; H or OH if unused. Non-standard residues stand in square brackets, D forms with d. Residues, ends and D or L forms follow the SMILES beside them. X7 = NC(=O)CC[C@@H](CN[*:1])C(=O)[*:2]

What all share (assay type): cell-based
One test deals with PTHR1 and PTHR2. As to the kind of experiment: Tolerance pattern of β residues for PTHR1 and PTHR2 activation. On the set-up: key: “*” denotes potent PTHR1-selective agonism; “#” denotes potent PTHR2-selective agonism; “*#” denotes potent agonism of both PTHR1 and PTHR2. Particulars: PTHR1 vs PTHR2 agonism. An excerpt: Enhanced selectivity via double α→β replacement.
For the next test, the target named is T1, PTHR1 (Homo sapiens, UniProt Q03431).
T1 sequence (Q03431 27-593): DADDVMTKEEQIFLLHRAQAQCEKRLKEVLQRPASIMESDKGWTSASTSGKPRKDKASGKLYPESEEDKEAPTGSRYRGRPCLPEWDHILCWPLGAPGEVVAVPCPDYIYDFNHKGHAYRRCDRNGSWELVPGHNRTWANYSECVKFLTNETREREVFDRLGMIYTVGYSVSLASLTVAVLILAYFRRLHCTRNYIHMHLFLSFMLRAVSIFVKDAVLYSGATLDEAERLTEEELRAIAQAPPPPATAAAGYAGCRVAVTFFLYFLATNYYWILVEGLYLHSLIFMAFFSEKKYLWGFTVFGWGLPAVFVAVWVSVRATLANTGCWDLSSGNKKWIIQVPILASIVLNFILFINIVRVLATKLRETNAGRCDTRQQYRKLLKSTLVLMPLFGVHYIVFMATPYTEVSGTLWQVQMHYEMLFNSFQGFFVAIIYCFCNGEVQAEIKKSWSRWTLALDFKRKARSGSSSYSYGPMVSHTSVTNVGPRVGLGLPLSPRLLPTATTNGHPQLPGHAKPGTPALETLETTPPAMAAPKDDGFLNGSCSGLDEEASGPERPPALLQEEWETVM
As to the kind of experiment: PTHR1 activation, cAMP production (GloSensor) in HEK293 cells. On the set-up: expressed in transfected cells. The following applies: for PTHR1 Activation: Derivative EC50/PTH EC50: normalized to EC50 of PTH(1-34)-NH2 ([…]), cAMP production.

The next test deals with PTHR2 (Homo sapiens, UniProt P49190). Briefly: PTHR2 activation, cAMP production (GloSensor) in HEK293 cells. On the set-up: expressed in transfected cells. Particulars: HEK-293 cells, GloSensor cAMP; read-out: EC50 (nM) of PTHR2 Activation. The source says:
The assays employ HEK-293 cells that have been engineered to express the appropriate receptor. GloSensor-based detection of cAMP provides a read-out of receptor activation. […] (Carter, P. H. et al. Actions of the Small Molecule Ligands SW106 and AH-3960 on the Type-1 Parathyroid Hormone Receptor. Molecular Endocrinology 29, 307-321 (2015).)
FIGS. 10A and 10B depict dose-response curves of PTHR1 activation (FIG. 10A) and PTHR2 activation (FIG. 10B) in HEK293 cells stably expressing PTHR1 or PTHR2. For PTHR1 activation and all the binding data, data represent mean±s.e.m from three independent measurements; For PTHR2 activation, data represent mean±s.e.m from four independent measurements. Curves were fit to the data using a four-parameter sigmoidal dose-response equation.

Setting [1] is: HEK-293 cells, GloSensor cAMP, read-out: EC50 (nM) of PTHR1 Activation.
[2] abbreviates: Table 8, hPTHR1, read-out: PTHR1 EC50.

PTHR2, sequence (P49190 25-550): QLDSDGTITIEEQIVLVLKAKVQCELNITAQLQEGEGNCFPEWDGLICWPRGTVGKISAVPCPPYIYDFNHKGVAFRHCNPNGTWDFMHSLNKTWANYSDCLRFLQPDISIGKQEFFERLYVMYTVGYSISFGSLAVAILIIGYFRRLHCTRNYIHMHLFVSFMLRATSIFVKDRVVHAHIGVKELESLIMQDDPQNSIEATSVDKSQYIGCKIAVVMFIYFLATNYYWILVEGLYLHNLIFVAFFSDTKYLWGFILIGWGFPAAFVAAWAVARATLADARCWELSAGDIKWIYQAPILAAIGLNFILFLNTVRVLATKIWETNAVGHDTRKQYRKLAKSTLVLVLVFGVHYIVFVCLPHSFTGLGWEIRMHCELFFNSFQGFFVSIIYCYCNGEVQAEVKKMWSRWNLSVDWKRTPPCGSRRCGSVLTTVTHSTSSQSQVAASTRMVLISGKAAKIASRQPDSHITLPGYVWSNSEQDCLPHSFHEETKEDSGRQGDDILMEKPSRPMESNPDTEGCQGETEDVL

As for `CC[C@H](C)[C@H](NC(=O)[C@H](CCC(=O)O)NC(=O)[C@H](CO)NC(=O)[C@@H](NC(=O)C[C@@H](N)CO)C(C)C)C(=O)N[C@@H](CCC(N)=O)C(=O)N[C@@H](CC(C)C)C(=O)N[C@@H](CCSC)C(=O)N[C@@H](Cc1c[nH]cn1)C(=O)N[C@@H](CC(N)=O)C(=O)N[C@@H](CC(C)C)C(=O)NCC(=O)N[C@@H](CCCCN)C(=O)N[C@@H](Cc1c[nH]cn1)C(=O)N[C@@H](CC(C)C)C(=O)N[C@@H](CC(N)=O)C(=O)N[C@@H](CO)C(=O)N[C@@H](CCSC)C(=O)N[C@@H](CCC(=O)O)C(=O)N[C@@H](CCCNC(=N)N)C(=O)N[C@H](C(=O)N[C@@H](CCC(=O)O)C(=O)N[C@@H](Cc1c[nH]c2ccccc12)C(=O)N[C@@H](CC(C)C)C(=O)N[C@@H](CCCNC(=N)N)C(=O)N[C@@H](CCCCN)C(=O)N[C@@H](CCCCN)C(=O)N[C@@H](CC(C)C)C(=O)N[C@@H](CCC(N)=O)C(=O)N[C@@H](CC(=O)O)C(=O)N[C@H](C(=O)N[C@@H](Cc1c[nH]cn1)C(=O)N[C@@H](CC(N)=O)C(=O)N[C@@H](Cc1ccccc1)C(N)=O)C(C)C)C(C)C` [SEQ. ID. NO: 38], in the test with PTHR1 and PTHR2, the “Tolerance Pattern of β AA” value was “*#”. At PTHR1 (setting [1]), the EC50 was determined as 0.27 ± 0.06 nM.
As to `CC[C@H](C)[C@H](NC(=O)[C@H](CCC(=O)O)NC(=O)[C@H](CO)NC(=O)[C@@H](CNC(=O)[C@@H](N)CO)C(C)C)C(=O)N[C@@H](CCC(N)=O)C(=O)N[C@@H](CC(C)C)C(=O)N[C@@H](CCSC)C(=O)N[C@@H](Cc1c[nH]cn1)C(=O)N[C@@H](CC(N)=O)C(=O)N[C@@H](CC(C)C)C(=O)NCC(=O)N[C@@H](CCCCN)C(=O)N[C@@H](Cc1c[nH]cn1)C(=O)N[C@@H](CC(C)C)C(=O)N[C@@H](CC(N)=O)C(=O)N[C@@H](CO)C(=O)N[C@@H](CCSC)C(=O)N[C@@H](CCC(=O)O)C(=O)N[C@@H](CCCNC(=N)N)C(=O)N[C@H](C(=O)N[C@@H](CCC(=O)O)C(=O)N[C@@H](Cc1c[nH]c2ccccc12)C(=O)N[C@@H](CC(C)C)C(=O)N[C@@H](CCCNC(=N)N)C(=O)N[C@@H](CCCCN)C(=O)N[C@@H](CCCCN)C(=O)N[C@@H](CC(C)C)C(=O)N[C@@H](CCC(N)=O)C(=O)N[C@@H](CC(=O)O)C(=O)N[C@H](C(=O)N[C@@H](Cc1c[nH]cn1)C(=O)N[C@@H](CC(N)=O)C(=O)N[C@@H](Cc1ccccc1)C(N)=O)C(C)C)C(C)C` [SEQ. ID. NO: 23], the “Tolerance Pattern of β AA” value in the test on PTHR1 and PTHR2 is reported as “#”. In addition, the concentration giving a half-maximal response (EC50) on PTHR1 (setting [1]) amounted to 4.47 ± 0.47 nM. Moreover, the “PTHR1 Activation: Derivative EC50/PTH EC50” value on PTHR1 is listed as 11.76.
On to `CC[C@H](C)[C@H](NC(=O)[C@H](CCC(=O)O)NC(=O)[C@H](CO)NC(=O)[C@@H](NC(=O)[C@@H](N)CO)C(C)C)C(=O)NC[C@H](CCC(N)=O)C(=O)N[C@@H](CC(C)C)C(=O)N[C@@H](CCSC)C(=O)N[C@@H](Cc1c[nH]cn1)C(=O)N[C@@H](CC(N)=O)C(=O)N[C@@H](CC(C)C)C(=O)NCC(=O)N[C@@H](CCCCN)C(=O)N[C@@H](Cc1c[nH]cn1)C(=O)N[C@@H](CC(C)C)C(=O)N[C@@H](CC(N)=O)C(=O)N[C@@H](CO)C(=O)N[C@@H](CCSC)C(=O)N[C@@H](CCC(=O)O)C(=O)N[C@@H](CCCNC(=N)N)C(=O)N[C@H](C(=O)N[C@@H](CCC(=O)O)C(=O)N[C@@H](Cc1c[nH]c2ccccc12)C(=O)N[C@@H](CC(C)C)C(=O)N[C@@H](CCCNC(=N)N)C(=O)N[C@@H](CCCCN)C(=O)N[C@@H](CCCCN)C(=O)N[C@@H](CC(C)C)C(=O)N[C@@H](CCC(N)=O)C(=O)N[C@@H](CC(=O)O)C(=O)N[C@H](C(=O)N[C@@H](Cc1c[nH]cn1)C(=O)N[C@@H](CC(N)=O)C(=O)N[C@@H](Cc1ccccc1)C(N)=O)C(C)C)C(C)C` [SEQ. ID. NO: 35] (H-SVSEI[X7]LMHNLGKHLNSMERVEWLRKKLQDVHNF-NH2; N-terminus assumed), for which, in the test with PTHR1 and PTHR2, the “Tolerance Pattern of β AA” value is on record as “*#”. In addition, the 50% effective concentration (EC50) at PTHR1 (setting [1]) is 0.42 ± 0.07 nM; on PTHR1 (setting [2]), 1.96 ± 0.45 nM. In addition, the “PTHR1 Activation: Derivative EC50/PTH EC50” value at PTHR1 was determined as 1.11.
With `CC[C@H](C)[C@H](NC(=O)[C@H](CCC(=O)O)NC(=O)[C@H](CO)NC(=O)[C@@H](NC(=O)[C@@H](N)CO)C(C)C)C(=O)N[C@@H](CCC(N)=O)CC(=O)N[C@@H](CC(C)C)C(=O)N[C@@H](CCSC)C(=O)N[C@@H](Cc1c[nH]cn1)C(=O)N[C@@H](CC(N)=O)C(=O)N[C@@H](CC(C)C)C(=O)NCC(=O)N[C@@H](CCCCN)C(=O)N[C@@H](Cc1c[nH]cn1)C(=O)N[C@@H](CC(C)C)C(=O)N[C@@H](CC(N)=O)C(=O)N[C@@H](CO)C(=O)N[C@@H](CCSC)C(=O)N[C@@H](CCC(=O)O)C(=O)N[C@@H](CCCNC(=N)N)C(=O)N[C@H](C(=O)N[C@@H](CCC(=O)O)C(=O)N[C@@H](Cc1c[nH]c2ccccc12)C(=O)N[C@@H](CC(C)C)C(=O)N[C@@H](CCCNC(=N)N)C(=O)N[C@@H](CCCCN)C(=O)N[C@@H](CCCCN)C(=O)N[C@@H](CC(C)C)C(=O)N[C@@H](CCC(N)=O)C(=O)N[C@@H](CC(=O)O)C(=O)N[C@H](C(=O)N[C@@H](Cc1c[nH]cn1)C(=O)N[C@@H](CC(N)=O)C(=O)N[C@@H](Cc1ccccc1)C(N)=O)C(C)C)C(C)C` [SEQ. ID. NO: 43], the “Tolerance Pattern of β AA” value with PTHR1 and PTHR2 is on record as “#”. Further, the EC50 on PTHR1 (setting [1]) worked out at 8.45 ± 1.35 nM. Moreover, on PTHR1, the “PTHR1 Activation: Derivative EC50/PTH EC50” value came to 22.24.
In the case of `CC[C@H](C)[C@H](NC(=O)[C@H](CCC(=O)O)NC(=O)[C@H](CO)NC(=O)[C@@H](NC(=O)[C@@H](N)CO)C(C)C)C(=O)N[C@@H](CCC(N)=O)C(=O)N[C@H](CC(=O)N[C@@H](CCSC)C(=O)N[C@@H](Cc1c[nH]cn1)C(=O)N[C@@H](CC(N)=O)C(=O)N[C@@H](CC(C)C)C(=O)NCC(=O)N[C@@H](CCCCN)C(=O)N[C@@H](Cc1c[nH]cn1)C(=O)N[C@@H](CC(C)C)C(=O)N[C@@H](CC(N)=O)C(=O)N[C@@H](CO)C(=O)N[C@@H](CCSC)C(=O)N[C@@H](CCC(=O)O)C(=O)N[C@@H](CCCNC(=N)N)C(=O)N[C@H](C(=O)N[C@@H](CCC(=O)O)C(=O)N[C@@H](Cc1c[nH]c2ccccc12)C(=O)N[C@@H](CC(C)C)C(=O)N[C@@H](CCCNC(=N)N)C(=O)N[C@@H](CCCCN)C(=O)N[C@@H](CCCCN)C(=O)N[C@@H](CC(C)C)C(=O)N[C@@H](CCC(N)=O)C(=O)N[C@@H](CC(=O)O)C(=O)N[C@H](C(=O)N[C@@H](Cc1c[nH]cn1)C(=O)N[C@@H](CC(N)=O)C(=O)N[C@@H](Cc1ccccc1)C(N)=O)C(C)C)C(C)C)CC(C)C` [SEQ. ID. NO: 44], the “Tolerance Pattern of β AA” value with PTHR1 and PTHR2 was “*”. The EC50 on PTHR2 came to 35 ± 2.84 nM.
For `CC[C@H](C)[C@H](NC(=O)[C@H](CCC(=O)O)NC(=O)[C@H](CO)NC(=O)[C@@H](NC(=O)[C@@H](N)CO)C(C)C)C(=O)N[C@@H](CCC(N)=O)C(=O)NC[C@H](CC(C)C)C(=O)N[C@@H](CCSC)C(=O)N[C@@H](Cc1c[nH]cn1)C(=O)N[C@@H](CC(N)=O)C(=O)N[C@@H](CC(C)C)C(=O)NCC(=O)N[C@@H](CCCCN)C(=O)N[C@@H](Cc1c[nH]cn1)C(=O)N[C@@H](CC(C)C)C(=O)N[C@@H](CC(N)=O)C(=O)N[C@@H](CO)C(=O)N[C@@H](CCSC)C(=O)N[C@@H](CCC(=O)O)C(=O)N[C@@H](CCCNC(=N)N)C(=O)N[C@H](C(=O)N[C@@H](CCC(=O)O)C(=O)N[C@@H](Cc1c[nH]c2ccccc12)C(=O)N[C@@H](CC(C)C)C(=O)N[C@@H](CCCNC(=N)N)C(=O)N[C@@H](CCCCN)C(=O)N[C@@H](CCCCN)C(=O)N[C@@H](CC(C)C)C(=O)N[C@@H](CCC(N)=O)C(=O)N[C@@H](CC(=O)O)C(=O)N[C@H](C(=O)N[C@@H](Cc1c[nH]cn1)C(=O)N[C@@H](CC(N)=O)C(=O)N[C@@H](Cc1ccccc1)C(N)=O)C(C)C)C(C)C` [SEQ. ID. NO: 36], in the test with PTHR1 and PTHR2, the “Tolerance Pattern of β AA” value is on record as “*#”. Moreover, the EC50 at PTHR1 (setting [1]) turned out to be 0.47 ± 0.14 nM; at PTHR1 (setting [2]), 0.24 ± 0.01 nM. Also, the “PTHR1 Activation: Derivative EC50/PTH EC50” value on PTHR1 is reported as 1.24.
